Species: Rattus norvegicus
Assay: Open TG-GATES - Regimen: Single
Format: toxicity, organism-based, Sprague-Dawley
Design: regimen Single, gender Male, age 6 weeks
Details: in vivo, po, 100 mg/kg, route gavage, dose level Low; for APTT / Bas / Eos / Fbg / Hb / Ht / Lym / MCH / MCHC / MCV / Mono / Neu / PT / Plat / RBC / Ret / WBC: tissue Blood; for KIDNEY_L / KIDNEY_R / KIDNEY_TOTAL: tissue Kidney; for LIVER: tissue Liver; for A/G / ALP / ALT / AST / BUN / CRE / Ca / Cl / DBIL / GLC / IP / K / LDH / Na / PL / RALB / TBIL / TC / TG / TP / gamma-GTP: tissue Plasma

## COC1=CC(=O)C[C@@H](C)[C@]12Oc1c(Cl)c(OC)cc(OC)c1C2=O [GRISEOFULVIN]
3 h
  TERMINAL_BW: 211.4 g
  APTT: 18.7 s
  Bas: 0%
  Eos: 0.8%
  Fbg: 213 mg/dL
  Hb: 13 g/dL
  Ht: 37.9%
  Lym: 77%
  MCH: 21.6 pg
  MCHC: 34.3%
  MCV: 63.2 fL
  Mono: 2.8%
  Neu: 19%
  PT: 13 s
  Plat: 121.7 x10_4/uL
  RBC: 600 x10_4/ul
  Ret: 8%
  WBC: 116.5 x10_2/uL
  KIDNEY_L: 0.9 g
  KIDNEY_R: 1 g
  KIDNEY_TOTAL: 1.9 g
  LIVER: 9.4 g
  A/G: 1.7
  ALP: 1005.8 IU/L
  ALT: 37.8 IU/L
  AST: 66.8 IU/L
  BUN: 10.2 mg/dL
  CRE: 0.3 mg/dL
  Ca: 10.9 mg/dL
  Cl: 104.2 meq/L
  DBIL: 0.2 mg/dL
  GLC: 181.4 mg/dL
  IP: 8.8 mg/dL
  K: 3.7 meq/L
  LDH: 130.4 IU/L
  Na: 141.6 meq/L
  PL: 164 mg/dL
  RALB: 3.4 g/dL
  TBIL: 0.3 mg/dL
  TC: 80.6 mg/dL
  TG: 131.4 mg/dL
  TP: 5.4 g/dL
  gamma-GTP: 0.8 IU/L
6 h
  TERMINAL_BW: 209.8 g
  APTT: 17.8 s
  Bas: 0%
  Eos: 1%
  Fbg: 218 mg/dL
  Hb: 13.3 g/dL
  Ht: 38.8%
  Lym: 75.6%
  MCH: 22 pg
  MCHC: 34.3%
  MCV: 64.2 fL
  Mono: 3%
  Neu: 20%
  PT: 13 s
  Plat: 135.7 x10_4/uL
  RBC: 604.8 x10_4/ul
  Ret: 8%
  WBC: 100.3 x10_2/uL
  KIDNEY_L: 0.9 g
  KIDNEY_R: 0.9 g
  KIDNEY_TOTAL: 1.9 g
  LIVER: 9.1 g
  A/G: 1.8
  ALP: 1063.4 IU/L
  ALT: 38.6 IU/L
  AST: 70.8 IU/L
  BUN: 10 mg/dL
  CRE: 0.4 mg/dL
  Ca: 10.8 mg/dL
  Cl: 103.4 meq/L
  DBIL: 0.094 mg/dL
  GLC: 200.4 mg/dL
  IP: 9.7 mg/dL
  K: 4 meq/L
  LDH: 179.4 IU/L
  Na: 141 meq/L
  PL: 148.4 mg/dL
  RALB: 3.4 g/dL
  TBIL: 0.2 mg/dL
  TC: 80.8 mg/dL
  TG: 48.6 mg/dL
  TP: 5.4 g/dL
  gamma-GTP: 1.6 IU/L
9 h
  TERMINAL_BW: 207.5 g
  APTT: 18.1 s
  Bas: 0%
  Eos: 1%
  Fbg: 222.6 mg/dL
  Hb: 13.2 g/dL
  Ht: 38.8%
  Lym: 74.8%
  MCH: 21.4 pg
  MCHC: 34.1%
  MCV: 62.9 fL
  Mono: 2.2%
  Neu: 22%
  PT: 13.3 s
  Plat: 123.9 x10_4/uL
  RBC: 617.8 x10_4/ul
  Ret: 7.5%
  WBC: 96 x10_2/uL
  KIDNEY_L: 1 g
  KIDNEY_R: 0.9 g
  KIDNEY_TOTAL: 1.9 g
  LIVER: 8.6 g
  A/G: 1.7
  ALP: 994.6 IU/L
  ALT: 34.4 IU/L
  AST: 64.2 IU/L
  BUN: 9.8 mg/dL
  CRE: 0.3 mg/dL
  Ca: 10.4 mg/dL
  Cl: 103.6 meq/L
  DBIL: 0.078 mg/dL
  GLC: 199.6 mg/dL
  IP: 10.3 mg/dL
  K: 3.9 meq/L
  LDH: 101 IU/L
  Na: 142 meq/L
  PL: 138.2 mg/dL
  RALB: 3.4 g/dL
  TBIL: 0.1 mg/dL
  TC: 72.6 mg/dL
  TG: 48 mg/dL
  TP: 5.4 g/dL
  gamma-GTP: 1.2 IU/L
24 h
  TERMINAL_BW: 224.8 g
  APTT: 19.6 s
  Bas: 0%
  Eos: 1%
  Fbg: 222.4 mg/dL
  Hb: 13.4 g/dL
  Ht: 40.6%
  Lym: 77.6%
  MCH: 21.5 pg
  MCHC: 33.1%
  MCV: 64.8 fL
  Mono: 3.2%
  Neu: 17.4%
  PT: 13.1 s
  Plat: 117.6 x10_4/uL
  RBC: 626.6 x10_4/ul
  Ret: 7.2%
  WBC: 107.9 x10_2/uL
  KIDNEY_L: 1 g
  KIDNEY_R: 1 g
  KIDNEY_TOTAL: 2 g
  LIVER: 10.8 g
  A/G: 1.5
  ALP: 926.8 IU/L
  ALT: 41.8 IU/L
  AST: 69.4 IU/L
  BUN: 14.4 mg/dL
  CRE: 0.4 mg/dL
  Ca: 11 mg/dL
  Cl: 103.4 meq/L
  DBIL: 0.1 mg/dL
  GLC: 215.8 mg/dL
  IP: 8.5 mg/dL
  K: 4.2 meq/L
  LDH: 146.6 IU/L
  Na: 141.8 meq/L
  PL: 136.4 mg/dL
  RALB: 3.3 g/dL
  TBIL: 0.2 mg/dL
  TC: 71 mg/dL
  TG: 95 mg/dL
  TP: 5.5 g/dL
  gamma-GTP: 1.4 IU/L
